Assay results published in patent US12083140B2, “Pharmaceutical composition for preventing and treating glaucoma, containing adenosine derivative” (FUTURE MEDICINE CO., LTD., priority 2017, dated 2024).

Tests used:
[1] = system: TPA-induced mouse ear edema; assay: Anti-inflammatory activity, TPA-induced mouse ear edema; assay type: in vivo, ICR mice; conditions: 0.5% in acetone
Description: In order to investigate the anti-inflammatory activity of the derivatives of the present invention, the animal experiments were performed as below. Seven-week-old male ICR mice were treated with TPA (12-O-tetradecanoylphorbol 13-acetate, […]) in the right ear. […] The same experiment was performed by treating hydrocortisone used as a treatment agent for inflammation as a control at the same concentration.
Subsequently, secondly, the adenosine derivative compound of the present invention was treated after 6 hours from TPA treatment. Twenty-four hours after TPA treatment, the animals were euthanized using the cervical dislocation method. Then, a right ear sample was obtained using a 6 mm diameter punch. The activity could be confirmed by weighing using a microbalance. The inhibition rate (%) was calculated using the following Equation 1.

intraocular pressure = assay: Intraocular pressure reduction after oral administration, dexamethasone-elevated intraocular pressure; assay type: in vivo, C57BL/6J mice; conditions: oral, 5, 10, 20 mg/kg once a day and 10 mg/kg twice a day, 22 days
Description: In order to examine the intraocular pressure lowering effect of the derivatives of the present invention, the following animal experiments were performed. […] As controls, only the above excipients were administered to laboratory animals with elevated intraocular pressure once a day, or experimental animals were not treated with dexamethasone or with 4.17 mg/kg of acetazolamide, an intraocular pressure lowering agent, once a day.
Then, the intraocular pressure of the test animal was measured at predetermined intervals for 22 days, and the results are shown in FIG. 8 to FIG. 12. In FIG. 8 to FIG. 12, Control represents a control group in which dexamethasone is not treated to laboratory animals, Vehicle represents a control group in which only excipients were orally administered to laboratory animals with elevated intraocular pressure, and Acetazolamide represents control group in which acetazolamide, an intraocular pressure lowering agent was orally administered to laboratory animals with elevated intraocular pressure.

[2] = system: extracellular matrix proteins (Fibronectin, SMA and MYOC); assay: Anti-fibrotic effect on trabecular meshwork tissue (immunostaining); assay type: in vivo, C57BL/6J mice; conditions: Example 2 oral 20 mg/kg once a day and 10 mg/kg twice a day; acetazolamide 4.17 mg/kg once a day
Description: In Experimental Example 10, the ocular tissues of each laboratory animal after measurement of intraocular pressure were extracted and sectioned and immunostaining using antibody was performed to confirm the expression of extracellular matrix proteins (Fibronectin, SMA and MYOC) and the results are shown in FIG. 13. In FIG. 13, Normal represents the trabecular meshwork of the animal which dexamethasone was not treated with in Experimental Example 10, Control represents the trabecular meshwork tissue of the animal to which only the excipient was administered in Experimental Example 10, Acetazolamide represents the trabecular meshwork tissue of the animal to which acetazolamide was administered in Experimental Example 10. Fluorescently stained tissue was observed under fluorescence microscope under the same conditions (magnification 200×, exposure time 1 sec).

MMP (MMP2, MMP9) = assay: MMP enzyme protein and mRNA expression in trabecular meshwork tissue; assay type: in vivo, C57BL/6J mice; conditions: Example 2 oral 20 mg/kg once a day and 10 mg/kg twice a day; acetazolamide 4.17 mg/kg once a day
Description: (§1) In Experimental Example 10, the expression amounts of these proteins and mRNAs in MMP and TIMP enzymes were measured for the eye tissues of the respective laboratory animals which the measurement of the intraocular pressure was completed, and the results are shown in FIG. 14 to FIG. 17. FIG. 14 and FIG. 15 show protein expression amounts of MMP (MMP2, MMP9) and TIMP (TIMP 1, TIMP2) enzymes, respectively. FIG. 16 and FIG. 17 show mRNA expression levels. In FIG. 14 to FIG. 17, Normal represents the expression level of the animal to which the dexamethasone was not treated in Experimental Example 10, Control represents the expression level of the animal to which only the excipient was administered in Experimental Example 10, and Acetazolamide represents the expression level of the animal to which acetazolamide was administered in Experimental Example 10.

TIMP (TIMP 1, TIMP2) = assay: TIMP enzyme protein and mRNA expression in trabecular meshwork tissue; assay type: in vivo, C57BL/6J mice; conditions: Example 2 oral 20 mg/kg once a day and 10 mg/kg twice a day; acetazolamide 4.17 mg/kg once a day
Description: as §1

each cell line = assay: Cytotoxicity, Cyto X cell viability assay kit; assay type: cell-based
hERG = hERG (Homo sapiens, UniProt Q12809); assay: Cardiotoxicity, hERG ligand binding assay (fluorescence polarization)
[3] = system: histidine-requiring Salmonella (TA98, TA100, TA1535 and TA1537 strains) and tryptophan-requiring E. coli (WP2uvrA (pKM101) strain); assay: Genotoxicity, back-mutation test with and without metabolic activation; assay type: cell-based
rats = assay: Single dose toxicity test; assay type: in vivo

Sequence of hERG (Q12809 whole entry): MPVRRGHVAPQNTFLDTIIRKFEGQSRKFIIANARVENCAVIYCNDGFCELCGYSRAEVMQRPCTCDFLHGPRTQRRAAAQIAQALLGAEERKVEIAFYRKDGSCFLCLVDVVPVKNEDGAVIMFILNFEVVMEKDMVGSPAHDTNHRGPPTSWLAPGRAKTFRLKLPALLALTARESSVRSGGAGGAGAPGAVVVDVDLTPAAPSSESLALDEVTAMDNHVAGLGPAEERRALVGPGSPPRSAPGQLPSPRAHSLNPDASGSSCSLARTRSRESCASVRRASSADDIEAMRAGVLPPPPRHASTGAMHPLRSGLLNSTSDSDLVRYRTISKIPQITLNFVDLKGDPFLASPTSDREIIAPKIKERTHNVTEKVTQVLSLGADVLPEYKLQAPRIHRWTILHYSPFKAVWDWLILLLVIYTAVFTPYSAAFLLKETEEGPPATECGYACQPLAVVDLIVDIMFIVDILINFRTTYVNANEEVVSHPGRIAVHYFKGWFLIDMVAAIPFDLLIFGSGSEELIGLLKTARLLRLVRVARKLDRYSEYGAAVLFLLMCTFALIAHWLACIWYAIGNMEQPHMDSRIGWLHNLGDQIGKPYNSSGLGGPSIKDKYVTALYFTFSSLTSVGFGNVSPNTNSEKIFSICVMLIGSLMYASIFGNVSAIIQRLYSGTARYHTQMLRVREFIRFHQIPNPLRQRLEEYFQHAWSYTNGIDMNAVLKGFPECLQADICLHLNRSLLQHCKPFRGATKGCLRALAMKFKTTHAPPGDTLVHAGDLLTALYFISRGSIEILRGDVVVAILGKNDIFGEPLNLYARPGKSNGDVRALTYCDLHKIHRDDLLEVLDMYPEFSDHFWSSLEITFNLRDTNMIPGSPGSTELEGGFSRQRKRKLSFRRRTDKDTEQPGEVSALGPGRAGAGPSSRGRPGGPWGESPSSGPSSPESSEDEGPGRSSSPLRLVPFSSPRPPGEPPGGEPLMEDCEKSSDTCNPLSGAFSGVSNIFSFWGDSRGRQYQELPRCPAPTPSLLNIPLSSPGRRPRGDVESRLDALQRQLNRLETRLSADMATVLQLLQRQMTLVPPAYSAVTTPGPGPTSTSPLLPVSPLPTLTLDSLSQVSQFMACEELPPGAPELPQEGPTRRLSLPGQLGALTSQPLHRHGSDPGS

O[C@@H]1[C@H](O)CS[C@H]1n1cnc2c(NCc3cccc(Cl)c3)nc(Cl)nc21 [Example 2, (2R,3R,4S)-2-(2-chloro-6-(3-chlorobenzylamino)-9H-purin-9-yl)tetrahydrothiophene-3,4-diol]
TPA-induced mouse ear edema [1]: reduced by a small amount | intraocular pressure, dose dependence (intraocular pressure): reduction in intraocular pressure, which was dependent on the dose | expression of fibronectin, SMA and MYOC protein in trabecular meshwork tissue [2]: greatly reduced | protein and mRNA expression levels of MMP enzyme compared with the normal group (MMP (MMP2, MMP9)): significantly increased | protein and mRNA expression levels of TIMP enzyme compared with the normal group (TIMP (TIMP 1, TIMP2)): significantly decreased | toxicity, Cytotoxicity Test (each cell line): Not found | toxicity, Cardiotoxicity test (hERG): Not found | inhibition at 10 µM (hERG; human, hERG channel protein (ligand binding assay), probe red fluorescent hERG channel ligand tracer, 10 μM, read-out: inhibition rate (hERG channel ligand tracer binding)): ≤ 50% | toxicity, Genotoxicity test [3]: Not found | number of back-mutation reversion colonies ([3]; all doses of each strain, regardless of metabolic activation): did not exceed twice the negative control | toxicity, Single dose toxicity test (rats; rat, in vivo): Not found | dead animals (rats; single dose of 2,000 mg/kg, 5 male rats and 5 female rats): there was no dead animal
